Results: patent publication US20040157930A1, “Histone deacetylase enzyme-inhibiting derivatives of hydroxamic acid as new cytokine synthesis-inhibiting anti-inflammatory drugs” (priority 2001, published 2004)

Test system: DSS-induced colitis
Assay: Dextran-induced colitis
Type: in vivo, C57BL/6 mice
Settings: for Complete clinical score: 0 (healthy) to 4; for Weight: in g; for Bleeding / Stool consistency as score: score 0-4; for Colon length: post mortem day 10
Description: Female, 8 week-old C57BL/6 mice (The Jackson Laboratories, Bar Habor, Me.) weighing 20-22 g were used in this study. The animals were housed in rooms at a controlled temperature and a 12 h day/night rhythm. They were fed standard mice chow pellets ad libitum, had free access to tap water supplied in bottles, and were acclimatized to the conditions at least seven days before they were used in experiments. Mice were killed by cervical dislocation under isoflurane anesthesia (Fort Dodge, Iowa City, Iowa).
; molecular weight 40 kDa; ICN, Aurora, Ohio) dissolved in sterile, distilled water ad libitum from day one to five followed by a five day observation period. […]. Body weights, occult blood or the presence of gross blood per rectum, and stool consistency were determined daily. Two investigators blinded to the protocol assessed the clinical score (table 1). Weight loss <1% compared to day 1 was counted as 0 points, weight loss of 1 to <5% as 1 point, 5 to <9.9% as 2 points, 10 to 20% as 3 points and more than 20% as 4 points. […] Bleeding was scored 0 points for no blood in hemoccult, 2 points for positive hemoccult, and 4 points for gross bleeding. These scores (body weight, stool consistency, rectal bleeding) were added and divided by 3 resulting in a total clinical score ranging from 0 (healthy) to 4 (maximal activity of colitis).
Post mortem (on day 10), the entire colon was removed from the caecum to the anus and the colon length was measured as an indirect marker of inflammation.

[1] = DSS + SAHA 10 mg/kg p.o. daily, day 1
[2] = DSS + SAHA 10 mg/kg p.o. daily, day 2
[3] = DSS + SAHA 10 mg/kg p.o. daily, day 3
[4] = DSS + SAHA 10 mg/kg p.o. daily, day 4
[5] = DSS + SAHA 10 mg/kg p.o. daily, day 5
[6] = DSS + SAHA 10 mg/kg p.o. daily, day 6
[7] = DSS + SAHA 10 mg/kg p.o. daily, day 7
[8] = DSS + SAHA 10 mg/kg p.o. daily, day 8
[9] = DSS + SAHA 10 mg/kg p.o. daily, day 9
[10] = DSS + SAHA 10 mg/kg p.o. daily, day 10
[11] = SAHA 10 mg/kg p.o. daily without DSS, day 1
[12] = SAHA 10 mg/kg p.o. daily without DSS, day 2
[13] = SAHA 10 mg/kg p.o. daily without DSS, day 3
[14] = SAHA 10 mg/kg p.o. daily without DSS, day 4
[15] = SAHA 10 mg/kg p.o. daily without DSS, day 5
[16] = SAHA 10 mg/kg p.o. daily without DSS, day 6
[17] = SAHA 10 mg/kg p.o. daily without DSS, day 7
[18] = SAHA 10 mg/kg p.o. daily without DSS, day 8
[19] = SAHA 10 mg/kg p.o. daily without DSS, day 9
[20] = SAHA 10 mg/kg p.o. daily without DSS, day 10

O=C(CCCCCCC(=O)Nc1ccccc1)NO [SAHA, suberoylanilide hydroxamic acid]
Complete clinical score [1]: 0.0 ± 0.0 | Weight [1]: 19.1 ± 0.2 | Bleeding [1]: 0.0 ± 0.0 | Stool consistency as score [1]: 0.0 ± 0.0 | Complete clinical score [2]: 0.0 ± 0.0 | Weight [2]: 18.8 ± 0.2 | Bleeding [2]: 0.0 ± 0.0 | Stool consistency as score [2]: 0.0 ± 0.0 | Complete clinical score [3]: 0.1 ± 0.1 | Weight [3]: 19.1 ± 0.3 | Bleeding [3]: 0.0 ± 0.0 | Stool consistency as score [3]: 0.0 ± 0.0 | Complete clinical score [4]: 0.2 ± 0.1 | Weight [4]: 18.4 ± 0.4 | Bleeding [4]: 0.0 ± 0.0 | Stool consistency as score [4]: 0.0 ± 0.0 | Complete clinical score [5]: 0.7 + 0.3 | Weight [5]: 18.4 ± 0.4 | Bleeding [5]: 1.2 ± 0.4 | Stool consistency as score [5]: 0.8 ± 0.4 | Complete clinical score [6]: 1.3 ± 0.3 | Weight [6]: 18.7 ± 0.3 | Bleeding [6]: 2.4 ± 0.4 | Stool consistency as score [6]: 0.8 ± 0.4 | Complete clinical score [7]: 1.5 ± 0.1 | Weight [7]: 18.0 ± 0.4 | Bleeding [7]: 2.0 ± 0.0 | Stool consistency as score [7]: 2.0 ± 0.0 | Complete clinical score [8]: 1.9 ± 0.1 | Weight [8]: 16.9 ± 0.3 | Bleeding [8]: 1.6 ± 0.4 | Stool consistency as score [8]: 2.0 ± 0.0 | Complete clinical score [9]: 1.5 ± 0.4 | Weight [9]: 16.6 ± 0.4 | Bleeding [9]: 1.2 ± 0.4 | Stool consistency as score [9]: 1.2 ± 0.4 | Complete clinical score [10]: 1.3 ± 0.4 | Weight [10]: 16.6 ± 0.4 | Bleeding [10]: 0.8 ± 0.4 | Stool consistency as score [10]: 1.2 ± 0.4 | Colon length (DSS + SAHA 10 mg/kg p.o. daily, DSS + water 7.6 ± 0.2): 9.2 ± 0.2 cm | Complete clinical score [11]: 0.0 ± 0.0 | Weight [11]: 18.9 ± 0.3 | Bleeding [11]: 0.0 ± 0.0 | Stool consistency as score [11]: 0.0 ± 0.0 | Complete clinical score [12]: 0.0 ± 0.0 | Weight [12]: 18.8 ± 0.4 | Bleeding [12]: 0.0 ± 0.0 | Stool consistency as score [12]: 0.0 ± 0.0 | Complete clinical score [13]: 0.0 ± 0.0 | Weight [13]: 18.9 ± 0.2 | Bleeding [13]: 0.0 ± 0.0 | Stool consistency as score [13]: 0.0 ± 0.0 | Complete clinical score [14]: 0.0 ± 0.0 | Weight [14]: 18.9 ± 0.3 | Bleeding [14]: 0.0 ± 0.0 | Stool consistency as score [14]: 0.0 ± 0.0 | Complete clinical score [15]: 0.0 ± 0.0 | Weight [15]: 19.0 ± 0.1 | Bleeding [15]: 0.0 ± 0.0 | Stool consistency as score [15]: 0.0 ± 0.0 | Complete clinical score [16]: 0.0 ± 0.0 | Weight [16]: 19.0 ± 0.3 | Bleeding [16]: 0.0 ± 0.0 | Stool consistency as score [16]: 0.0 ± 0.0 | Complete clinical score [17]: 0.0 ± 0.0 | Weight [17]: 18.9 ± 0.1 | Bleeding [17]: 0.0 ± 0.0 | Stool consistency as score [17]: 0.0 ± 0.0 | Complete clinical score [18]: 0.0 ± 0.0 | Weight [18]: 19.0 ± 0.3 | Bleeding [18]: 0.0 ± 0.0 | Stool consistency as score [18]: 0.0 ± 0.0 | Complete clinical score [19]: 0.0 ± 0.1 | Weight [19]: 19.1 ± 0.1 | Bleeding [19]: 0.0 ± 0.0 | Stool consistency as score [19]: 0.0 ± 0.0 | Complete clinical score [20]: 0.0 ± 0.0 | Weight [20]: 19.1 ± 0.2 | Bleeding [20]: 0.0 ± 0.0 | Stool consistency as score [20]: 0.0 ± 0.0 | Colon length (SAHA 10 mg/kg p.o. daily without DSS, water 10.5 ± 0.3): 10.1 ± 0.2 cm | effect on dextran-induced colitis (overall conclusion) (SAHA 10 mg/kg p.o. daily, days 1 to 10): effectively counteracts dextran-induced colitis
